Assay results taken from patent US20240000863A1, “Skin Probiotics” (The Regents of the University of California, priority 2021, published 2024).

B1: LEKTI-D6 protein (lymphoepithelial Kazal-Type-related protease inhibitor, domain 6), secreted by C. glutamicum and purified (other)
chain: MESGKATSYAELCNEYRKLVRNGKLACTRENDPIQGPDGKVHGNTCSMCEVFFQAEEEEKKKKEGESRNKR

What was measured:
KLK5 = molecular target: T1, KLK5 (Homo sapiens, UniProt Q9Y337); assay: KLK5 inhibition assay (Acetyl-YASR-paranitroanilide, absorbance 405 nm); type: biochemical; conditions: over 30 minutes; leupeptin at 100 uM
T1 sequence (Q9Y337 23-293): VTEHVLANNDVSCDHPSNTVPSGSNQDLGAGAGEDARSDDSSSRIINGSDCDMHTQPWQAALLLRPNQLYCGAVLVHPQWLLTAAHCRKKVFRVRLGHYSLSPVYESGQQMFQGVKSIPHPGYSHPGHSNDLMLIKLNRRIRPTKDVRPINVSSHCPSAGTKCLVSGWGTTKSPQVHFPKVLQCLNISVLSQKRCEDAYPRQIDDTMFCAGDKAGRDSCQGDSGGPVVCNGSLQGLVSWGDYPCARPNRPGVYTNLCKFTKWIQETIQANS
Method: The KLK5 inhibition assay is the foremost method to determine inhibition of KLK5. In the assay, KLK5 is incubated with the substrate Acetyl-YASR-paranitroanilide Uninhibited, KLK5 cleaves the substrate Acetyl-YASR at the arginine position […], releasing para-nitroanilide, a chromophore with absorbance 405 nm, resulting in increased absorption at that wavelength. When inhibited, the substrate Acetyl-YASR-paranitroanilide remains intact, and there is no increase in absorption at 405 nm. As a positive control, we used the absence of any inhibitor and the addition of purified Red Fluorescent Protein (RFP). As negative controls, we used a substrate only addition (no KLK5 is added) as well as a 100 uM addition of purified leupeptin, which is known to inhibit KLK5 at high concentrations.

[1] = molecular target: T2, KLK5 protein (kallikrein 5) (UniProt Q9Y337 67-293, limits assumed); assay: cell-based or functional assay
T2 sequence (looked up): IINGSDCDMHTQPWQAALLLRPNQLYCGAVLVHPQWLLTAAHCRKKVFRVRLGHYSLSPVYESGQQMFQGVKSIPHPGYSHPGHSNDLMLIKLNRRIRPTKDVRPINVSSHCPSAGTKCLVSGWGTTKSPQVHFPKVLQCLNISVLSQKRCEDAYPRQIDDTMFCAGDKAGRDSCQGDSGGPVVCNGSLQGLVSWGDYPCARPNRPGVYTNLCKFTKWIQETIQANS

Row | Molecule | change of absorbance at 405 nm (KLK5) | KLK5 inhibition assay (cleavage of Acetyl-YASR-paranitroanilide, absorbance at 405 nm), IC50 [1] [nM]
1 | CC(=O)N[C@@H](CC(C)C)C(=O)N[C@@H](CC(C)C)C(=O)N[C@H](C=O)CCCNC(=N)N [leupeptin] | very little increasing absorbance | –
2 | B1 | – | 89
